# In ChEMBL document CHEMBL3132767, “Validation of host factors of HIV integration as novel drug targets for anti-HIV therapy” (Medchemcomm, 2014):
# Experiments:
# [1] = test system: Human immunodeficiency virus 1; assay: Antiviral activity against HIV1 3B infected in human MT4 cells assessed as inhibition of viral replication by MTT assay; assay type: functional, organism-based; conditions: Human immunodeficiency virus 1, 3B
# [2] = Cytotoxicity against human MT4 cells by MTT assay; assay type: cell-based
# [3] = Selectivity index, ratio of CC50 for human MT4 cells to EC50 for HIV1 3B infected in human MT4 cells; assay type: toxicity, cell-based; conditions: MT4 cells (uninfected for CC50; HIV-1 3B infected for EC50)
# [4] = test system: Human immunodeficiency virus 1; assay: Inhibition of LEDGF/p75-HIV1 integrase interaction at 100 uM by Alphascreen assay
Compound,EC50 [1] [µM],CC50 [2] [µM],selectivity ratio [3],inhibition [4] [%]
C=CCC(C(=O)O)c1c(-c2ccccc2)c2cc(Cl)ccc2[nH]c1=O (stereo not drawn),12.4,67.3,6,
CCCC(C(=O)O)c1cnc2sc(C)cc2c1-c1ccc(C)cc1 (stereo not drawn),0.76,72.2,95,
Cc1ccc(-c2c(C(OC(C)(C)C)C(=O)O)cnc3sc(C)cc23)cc1 (stereo not drawn),,96,1390,
O=C(O)Cc1c(-c2ccccc2)c2cc(Cl)ccc2[nH]c1=O,41.9,> 150,> 3,
Cn1c(=O)c(/C(=N/c2ccccc2)c2nnn[nH]2)c(O)c2ccccc21,,,,36
CCCC(C(=O)O)c1c(C)nc2ccc(Cl)cc2c1-c1ccccc1 (stereo not drawn),2.35,67.3,25,
CCCC(C(=O)O)c1c(-c2ccccc2)c2cc(Cl)ccc2n(CCC)c1=O (stereo not drawn),10.8,64.4,6,
